Measured values: PMC5831360 (Nature chemical biology, 2017)
Values joined by “and” are separate entries in the source; they are usually repeats but may differ in a detail not shown here. Identical values can stand only once. Values belong to the molecule of their own block, whether it stands above or below them.

Key:
[1] = target: SPIN1-H3K4me3 interaction (Homo sapiens, UniProt Q9Y657); experiment: Competition pulldown, bead-bound H3K4me3 peptide and GST-SPIN1; type: binding; details: untagged compound, increasing concentrations
Chain of SPIN1-H3K4me3 interaction (Q9Y657 50-262): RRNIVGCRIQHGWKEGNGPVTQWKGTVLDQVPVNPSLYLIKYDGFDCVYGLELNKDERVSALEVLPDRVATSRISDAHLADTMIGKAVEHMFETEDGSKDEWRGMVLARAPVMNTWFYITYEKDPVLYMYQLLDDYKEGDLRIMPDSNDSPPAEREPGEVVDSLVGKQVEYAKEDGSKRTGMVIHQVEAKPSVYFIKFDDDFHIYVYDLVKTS

[2] = target: GFP-SPIN1 in transfected HeLa cells (Homo sapiens, UniProt Q9Y657); experiment: Cellular thermal shift assay; type: cell-based; details: 20 μM, overnight
Chain of GFP-SPIN1 in transfected HeLa cells (Q9Y657 whole entry): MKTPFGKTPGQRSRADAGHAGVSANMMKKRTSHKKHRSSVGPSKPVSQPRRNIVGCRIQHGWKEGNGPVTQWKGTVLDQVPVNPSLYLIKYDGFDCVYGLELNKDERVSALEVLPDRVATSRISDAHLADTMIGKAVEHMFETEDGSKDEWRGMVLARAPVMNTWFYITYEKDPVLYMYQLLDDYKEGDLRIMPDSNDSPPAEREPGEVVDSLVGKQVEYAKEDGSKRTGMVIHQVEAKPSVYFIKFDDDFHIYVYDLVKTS

GFP-53BP1 = GFP-53BP1 (Homo sapiens, UniProt Q12888); type: binding; details: HEK293T whole cell lysate, bead-immobilized biotinylated compound
Chain of GFP-53BP1 (Q12888 1144-1709): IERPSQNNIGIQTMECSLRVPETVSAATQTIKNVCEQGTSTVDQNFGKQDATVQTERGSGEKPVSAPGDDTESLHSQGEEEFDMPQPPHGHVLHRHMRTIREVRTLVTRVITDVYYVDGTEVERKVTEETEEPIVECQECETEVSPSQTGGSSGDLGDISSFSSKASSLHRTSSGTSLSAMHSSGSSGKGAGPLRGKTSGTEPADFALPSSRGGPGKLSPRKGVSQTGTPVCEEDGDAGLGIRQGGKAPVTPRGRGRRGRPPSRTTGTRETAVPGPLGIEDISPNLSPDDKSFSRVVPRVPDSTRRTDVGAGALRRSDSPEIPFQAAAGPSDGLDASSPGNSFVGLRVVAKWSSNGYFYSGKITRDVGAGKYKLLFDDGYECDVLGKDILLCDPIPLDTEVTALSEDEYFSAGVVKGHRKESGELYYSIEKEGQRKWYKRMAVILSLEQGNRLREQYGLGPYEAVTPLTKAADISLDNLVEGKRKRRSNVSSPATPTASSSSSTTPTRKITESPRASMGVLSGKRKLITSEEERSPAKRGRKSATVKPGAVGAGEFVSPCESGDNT

MBT domains of L3MBTL1 = MBT domains of L3MBTL1 (Homo sapiens, UniProt Q9Y468); experiment: Isothermal titration calorimetry; type: binding; details: Kd for L3MBTL1, ITC counter screen
Chain of MBT domains of L3MBTL1 (Q9Y468 274-585 limits assumed): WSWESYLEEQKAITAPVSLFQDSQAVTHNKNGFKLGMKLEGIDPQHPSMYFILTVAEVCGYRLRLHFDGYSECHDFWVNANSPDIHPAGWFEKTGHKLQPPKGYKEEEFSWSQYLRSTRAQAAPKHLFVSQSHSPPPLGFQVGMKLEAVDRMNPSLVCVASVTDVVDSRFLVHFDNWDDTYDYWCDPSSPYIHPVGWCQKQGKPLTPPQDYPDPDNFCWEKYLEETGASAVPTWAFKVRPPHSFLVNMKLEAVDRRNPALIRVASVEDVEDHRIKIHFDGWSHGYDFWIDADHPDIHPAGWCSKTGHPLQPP

T778 liposarcoma cells = experiment: RNA-seq of compound-treated versus SPIN1 knockdown cells; type: cell-based, human; details: 10 μM, 3 days
[3] = system: SPIN1 target genes (rRNA, IL1B, BST2, C1QTNF1, ALDH1A3, IFI44L) in T778 cells; experiment: RT-qPCR of SPIN1-regulated genes after compound treatment; type: cell-based, human; details: 4 days
Tudor domains of 53BP1 [4] = target: T1, Tudor domains of 53BP1 (Homo sapiens, UniProt Q12888); experiment: Isothermal titration calorimetry; type: binding; details: Kd for 53BP1, ITC counter screen
T1 sequence (Q12888 1484-1603 limits assumed): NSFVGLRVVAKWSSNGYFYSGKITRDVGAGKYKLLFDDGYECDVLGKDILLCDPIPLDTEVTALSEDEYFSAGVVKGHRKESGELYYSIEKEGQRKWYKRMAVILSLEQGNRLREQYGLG

Tudor domains of PHF20 [5] = target: Tudor domains of PHF20 (Homo sapiens, UniProt Q9BVI0); experiment: Isothermal titration calorimetry; type: binding; details: Kd for PHF20, ITC counter screen
Target sequence in this assay (Q9BVI0 83-147 limits assumed): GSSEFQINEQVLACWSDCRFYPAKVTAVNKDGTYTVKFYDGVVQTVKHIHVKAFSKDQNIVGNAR

SPIN2a/b = experiment: Chemiprecipitation of SPIN family members with tagged compound; type: binding
MBT domains of L3MBTL3 = MBT domains of L3MBTL3 (Homo sapiens, UniProt Q96JM7); experiment: Isothermal titration calorimetry; type: binding; details: Kd for L3MBTL3, ITC counter screen
Chain of MBT domains of L3MBTL3 (Q96JM7 232-543 limits assumed): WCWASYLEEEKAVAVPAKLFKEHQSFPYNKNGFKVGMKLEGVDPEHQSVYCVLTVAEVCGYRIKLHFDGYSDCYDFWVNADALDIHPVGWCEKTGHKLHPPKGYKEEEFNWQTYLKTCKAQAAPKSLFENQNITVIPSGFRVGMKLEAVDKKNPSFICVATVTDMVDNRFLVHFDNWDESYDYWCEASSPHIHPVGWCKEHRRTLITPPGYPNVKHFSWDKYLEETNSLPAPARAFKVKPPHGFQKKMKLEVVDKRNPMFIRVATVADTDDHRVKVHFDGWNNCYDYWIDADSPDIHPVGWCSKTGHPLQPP

SPIN4 = SPIN4 (Homo sapiens, UniProt Q56A73); experiment: Chemiprecipitation of SPIN family members with tagged compound; type: binding
Chain of SPIN4 (Q56A73 whole entry): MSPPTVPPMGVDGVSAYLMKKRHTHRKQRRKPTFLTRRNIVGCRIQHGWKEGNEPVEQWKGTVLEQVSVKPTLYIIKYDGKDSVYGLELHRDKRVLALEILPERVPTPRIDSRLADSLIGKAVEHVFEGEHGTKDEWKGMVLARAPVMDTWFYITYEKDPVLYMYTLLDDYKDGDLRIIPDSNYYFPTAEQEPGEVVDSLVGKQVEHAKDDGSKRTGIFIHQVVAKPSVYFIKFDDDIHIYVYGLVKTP

[6] = system: SPIN1 target genes in GFP-SPIN1 transfected T778 cells; experiment: RT-qPCR of SPIN1 target genes after GFP-SPIN1 overexpression; type: cell-based, human; details: 10 μM, 24 h after GFP-SPIN1 transfection
[7] = system: GFP-SPIN1 recruitment to promoter regions of rDNA and IL1B in T778 cells; experiment: α-GFP ChIP-qPCR of SPIN1 chromatin association; type: cell-based, human; details: 10 μM, overnight
SPIN1 = details: cited from earlier work
[8] = system: Spindlin1-H3K4me3 interaction; details: read-out: IC50, in vitro inhibition of Spindlin1-H3K4me3 interaction; AlphaLISA; cited from earlier work
subset of MBT domains = experiment: Protein domain microarray probing with biotin-tagged compounds; type: binding, human; details: biotinylated compound, 1 μM, Cy3-streptavidin
Tudor domains of 53BP1 [9] = target: T1, Tudor domains of 53BP1; experiment: as above; type: binding; details: biotinylated compound, 1 μM, Cy3-streptavidin
SPIN1 (SPIN1_50–262) = SPIN1 (SPIN1_50–262) (Homo sapiens, UniProt Q9Y657); experiment: Isothermal titration calorimetry; type: binding; details: read-out: dissociation constant (Kd) with SPIN1; ITC, 25 °C, pH 7.5
Chain of SPIN1 (SPIN1_50–262) (Q9Y657 50-262): as the sequence (Q9Y657 50-262) above

recombinant SPIN1 = recombinant SPIN1 (Homo sapiens, UniProt Q9Y657); experiment: In vitro thermal shift assay; type: binding; details: 100 μM compound, 1 mg/mL SPIN1, Sypro Orange
Chain of recombinant SPIN1 (Q9Y657 50-262): as above

Tudor domains of PHF20 [10] = target: Tudor domains of PHF20 (Homo sapiens, UniProt Q9BVI0); experiment: Protein domain microarray probing with biotin-tagged compounds; type: binding; details: biotinylated compound, 1 μM, Cy3-streptavidin
Target sequence in this assay (Q9BVI0 4-147): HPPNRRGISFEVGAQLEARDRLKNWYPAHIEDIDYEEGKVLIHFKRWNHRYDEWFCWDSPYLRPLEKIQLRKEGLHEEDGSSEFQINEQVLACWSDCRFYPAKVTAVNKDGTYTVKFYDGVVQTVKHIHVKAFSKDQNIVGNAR

[11] = target: yeast Tudor domain (SPF30^sp) (Schizosaccharomyces pombe, UniProt O94519); experiment: as above; type: binding; details: biotinylated compound, 1 μM, Cy3-streptavidin
Chain of yeast Tudor domain (SPF30^sp) (O94519 76-139 limits assumed): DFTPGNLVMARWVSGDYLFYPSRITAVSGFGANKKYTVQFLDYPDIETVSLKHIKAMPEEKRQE

SPIN1-TCF4 interaction = SPIN1-TCF4 interaction (Homo sapiens, UniProt Q9Y657); experiment: SPIN1-TCF4 interaction assay; type: binding
Chain of SPIN1-TCF4 interaction (Q9Y657 whole entry, the tested form may be a part): as the sequence (Q9Y657 whole entry) above

[12] = target: Spindlin1 (SPIN1), three Tudor domains (Homo sapiens, UniProt Q9Y657); experiment: Protein domain microarray probing with biotin-tagged compounds; type: binding; details: biotinylated compound, 1 μM, Cy3-streptavidin
Chain of Spindlin1 (SPIN1), three Tudor domains (Q9Y657 whole entry, the tested form may be a part): as the sequence (Q9Y657 whole entry) above

PHF20L1 = experiment: as above; type: binding, human; details: biotinylated compound, 1 μM, Cy3-streptavidin
GFP-SPIN1(FL) = GFP-SPIN1(FL) (Homo sapiens, UniProt Q9Y657); type: binding; details: HEK293 whole cell lysate, bead-immobilized biotinylated compound
Chain of GFP-SPIN1(FL) (Q9Y657 whole entry): as above

inhibition of H3K4me3 peptide - GST-SPIN1 interaction [1]: not active | stabilization of GFP-SPIN1 at high temperatures (CETSA) [2]: not with UNC1215 | interaction of tagged compound with GFP-53BP1 (GFP-53BP1): able to interact with GFP-53BP1
Compound: O=C(c1ccc(C(=O)N2CCC(N3CCCC3)CC2)c(Nc2ccccc2)c1)N1CCC(N2CCCC2)CC1 [UNC1215, reference compound]

Compound: O=C(c1ccc(C(=O)N2CCC(CCN3CCCC3)CC2)c(Nc2ccc(OCN3CCCC3)cc2)c1)N1CCC(CCN2CCCC2)CC1 [EML631]
Kd (MBT domains of L3MBTL1): < 100 µM and > 100 µM | transcripts down regulated in both SPIN1 knockdown and compound-treated cells (T778 liposarcoma cells): 655 | expression levels of six SPIN1-regulated candidate genes ([3]; 10 μM): decrease in the expression levels of all six candidate genes | Kd (Tudor domains of 53BP1 [4]): < 100 µM and > 100 µM | Kd (Tudor domains of PHF20 [5]): < 100 µM and > 100 µM | pulldown of SPIN2a/b by tagged compound (SPIN2a/b): reduced pulldown | Kd (MBT domains of L3MBTL3): < 100 µM and > 100 µM | interaction of tagged compound with SPIN4 (SPIN4): no interaction | SPIN1-overexpression-elevated expression of target genes [6]: dramatically attenuated | GFP-SPIN1 recruitment to promoter regions of rDNA and IL1B [7]: recruitment was blocked

Compound: COc1cc2c(cc1OCCCN1CCCC1)N=C(N)C21CCC1 [A366]
cell-based activity (SPIN1): 100 µM | IC50 [8]: ~0.2 µM

stabilization of GFP-SPIN1 at high temperatures (CETSA) [2]: stabilization | binding to a subset of MBT domains on protein domain microarray (subset of MBT domains): bound strongly | binding to Tudor domains of 53BP1 on protein domain microarray (Tudor domains of 53BP1 [9]): bound strongly | Kd (SPIN1 (SPIN1_50–262)): 15 µM | increase of melting temperature of SPIN1 (recombinant SPIN1): 5 °C | binding to Tudor domains of PHF20 on protein domain microarray (Tudor domains of PHF20 [10]): bound strongly | binding to yeast Tudor domain SPF30^sp on protein domain microarray [11]: bound strongly | block of SPIN1-TCF4 interaction (SPIN1-TCF4 interaction): blocked this interaction | binding to Spindlin1 on protein domain microarray [12]: bound strongly | binding to PHF20L1 on protein domain microarray (PHF20L1): bound strongly | pulldown of GFP-SPIN1 by tagged compound (GFP-SPIN1(FL)): detected the pulldown of GFP-SPIN1
Compound: O=C(c1ccc(C(=O)N2CCC(CCN3CCCC3)CC2)c(Nc2ccccc2)c1)N1CCC(CCN2CCCC2)CC1 [EML405]
inhibition of H3K4me3 peptide - GST-SPIN1 interaction [1]: higher concentrations of EML405 than EML631–633 were needed to inhibit the interaction | expression levels of six SPIN1-regulated candidate genes ([3]; 20 μM): decrease in the expression levels of all six candidate genes | SPIN1-overexpression-elevated expression of target genes [6]: dramatically attenuated
